Assay [1] has as its system HIV-1 BaL. Put plainly: Anti-HIV activity in PBMC, p24 ELISA of supernatant. It counts as cell-based. Conditions: 150 μM, supernatant, 7 days.
Assay [2] concerns HIV-GFP-VSV-G reporter virus. Put plainly: microbe, parasite or virus in culture. Format: cell-based, HIV-1. Particulars: Human immunodeficiency virus 1, TZM-bl, read-out: percentage inhibition of HIV-GFP-VSV-G replication.

The values that follow come from article PMC10605077, “In Vitro and In Silico Antiviral Activity of Di-Halogenated Compounds Derived from L-Tyrosine against Human Immunodeficiency Virus 1 (HIV-1)” (Current Issues in Molecular Biology, 2023).

By inhibition is commonly meant the share of the control response that was lost under treatment. Turning to `COc1c(Cl)cc(C[C@@H](C(=O)O)N(C)C)cc1Cl` [TODC-2M], the “inhibition of HIV-1 BaL in PBMC, extracellular p24 ELISA” value in assay [1] turned out to be 21.6%. For the same compound, the inhibition at 150 µM was greater than 20% in assay [1] (Human immunodeficiency virus 1, BAL, PBMC, 168 h, read-out: inhibition of HIV-1 BaL in PBMC, extracellular p24 ELISA) and 29% in assay [2].
